Data as given in PubChem BioAssay (NCI).
Values joined by “and” are separate entries in the source; they are usually repeats but may differ in a detail not shown here. Equal values may be shown once.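 Values below derive from 48-hour exposures of cells grown in 96-well plates, with endpoints linearly interpolated between the two concentrations bracketing the appropriate inhibition level. The concentration for 50% growth inhibition is given as GI50. TGI is the concentration that stops growth completely.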

Key:
Assay in all cases: NCI anticancer screen, dose series, 48 h
[1] = system: SF-295 CNS
[2] = system: SK-MEL-5 melanoma
[3] = system: CAKI-1 renal
[4] = system: SW-620 colon
[5] = system: TK-10 renal
[6] = system: A549 NSCLC
[7] = system: SF-268 CNS
[8] = system: K-562 leukemia
[9] = system: NCI-H23 lung
[10] = system: CCRF-CEM leukemia

Row | SMILES | GI50 [1] | TGI [1] | GI50 [2] | TGI [2] | GI50 [3] | TGI [3] | GI50 [4] | TGI [4] | GI50 [5] | TGI [5] | GI50 [6] | TGI [6] | GI50 [7] | TGI [7] | GI50 [8] | TGI [8] | GI50 [9] | TGI [9] | GI50 [10] | TGI [10]
1 | CN(C)c1ccc(/C=N/NC(=O)c2cccc3ccccc23)c(Cl)c1 | 0.588 µM | 9.96 µM | 0.922 µM | 24.1 µM | 0.527 µM | 8.04 µM | 0.578 µM | > 100 µM | 5 µM | 39.3 µM | 0.926 µM | > 100 µM | 9.1 µM | > 100 µM | 0.398 µM | > 100 µM | 7.51 µM | > 100 µM | 0.581 µM | > 100 µM
2 | NC(CO)C(=O)NCC(=O)O (stereo not drawn) |  | > 100 µM |  | > 100 µM |  | > 100 µM |  | > 100 µM |  | > 100 µM |  | > 100 µM |  | > 100 µM |  | > 100 µM |  | > 100 µM |  | > 100 µM
3 | CCN1C(=O)N(CC)C2C1NN=c1s/c(=C\c3cccc([N+](=O)[O-])c3)c(=O)n12 (stereo not drawn) | 0.0423 µM | > 100 µM | 0.0511 µM | 1.17 µM | 0.052 µM | > 100 µM | 0.0468 µM | > 100 µM | > 100 µM | > 100 µM | 0.181 µM | > 100 µM | 0.293 µM | > 100 µM | 0.0411 µM | > 100 µM | 0.413 µM | > 100 µM | 0.116 µM | > 100 µM
4 | COc1ccc(/C(=N/O)c2cc(OC)c(OC)c(OC)c2)c(OC)c1N | 3.02 µM | > 100 µM | 5.34 µM | > 100 µM | 5.53 µM | > 100 µM | 4.42 µM | > 100 µM | > 100 µM | > 100 µM | 8.21 µM | > 100 µM | 14.6 µM | > 100 µM | 3.14 µM | > 100 µM | 7.06 µM | > 100 µM | 4.09 µM | > 100 µM
5 | COc1cc(C2C3=C(COC3=O)Nc3cc4c(cc32)OCO4)cc2c1OCO2 (stereo not drawn) | 0.0299 µM |  | 0.101 µM | 0.374 µM | 0.156 µM | > 100 µM | 0.0651 µM | > 100 µM | 0.295 µM | > 100 µM | 0.117 µM | > 100 µM | 0.0834 µM | > 100 µM | 0.034 µM | > 100 µM | 0.0757 µM |  | 0.0698 µM | > 100 µM
6 | CC12CCC(O)CC1=CCC1C2CCC2(C)C(c3cccnc3)=CCC12 (stereo not drawn) | 56 µM | > 100 µM | 74.2 µM | > 100 µM | > 100 µM | > 100 µM | > 100 µM | > 100 µM | > 100 µM | > 100 µM | > 100 µM | > 100 µM | 95.2 µM | > 100 µM | 76.8 µM | > 100 µM | > 100 µM | > 100 µM | > 100 µM | > 100 µM
7 | O=C(c1ccccc1O)c1[nH]c(Cl)c(Cl)c1-n1c(C(=O)c2ccccc2O)cc(Cl)c1Cl | 1.05 µM and 0.792 µM | 4.16 µM and 3.38 µM | 0.314 µM and 0.22 µM | 1.38 µM and 0.589 µM | 0.425 µM and 0.385 µM | 10.6 µM and 3.1 µM | 0.869 µM and 0.716 µM | 13.2 µM and 12.7 µM | 0.656 µM and 0.616 µM | 10.9 µM and 12.4 µM | 2.69 µM and 1.8 µM | 10.9 µM and 14.6 µM | 0.677 µM and 0.546 µM | 13.4 µM and 14.6 µM | 0.409 µM | 16.8 µM | 0.418 µM and 0.409 µM | 6.8 µM and 11.7 µM | 0.467 µM and 0.382 µM | 16.9 µM and 12.2 µM
8 | COc1ccc(-c2nnc(Nc3nc(O)c(C4=c5cc(F)ccc5=NC4=O)s3)o2)cc1 | 29.5 µM | > 100 µM | 28.7 µM | > 100 µM | 28.8 µM | 99.3 µM | 47.6 µM | > 100 µM | 56.3 µM | > 100 µM | 64.6 µM | > 100 µM | 67.7 µM | > 100 µM | 37.1 µM | > 100 µM | 67.7 µM | > 100 µM | 28.8 µM | > 100 µM
9 | COC[C@@H](N=CN1CCc2cc(OC)c(OC)cc2C1)C(C)(C)C |  | > 100 µM |  | > 100 µM |  | > 100 µM |  | > 100 µM |  | > 100 µM |  | > 100 µM |  | > 100 µM |  | > 100 µM |  | > 100 µM |  | > 100 µM
10 | Cc1ccc(C)c2c(N=Nc3ccccc3[N+](=O)[O-])c(O)[nH]c12 |  | > 100 µM |  | > 100 µM |  | > 100 µM |  | > 100 µM |  | > 100 µM |  | > 100 µM |  | > 100 µM |  | > 100 µM |  | > 100 µM |  | > 100 µM
11 | COc1cc2c(cc1O)C(c1cc(O)c(O)c(OC)c1)C(O)(C(=O)O)C(CO)C2O (stereo not drawn) |  | > 100 µM |  | > 100 µM |  | > 100 µM |  | 76.5 µM |  | > 100 µM |  | > 100 µM |  | > 100 µM |  | > 100 µM |  | > 100 µM |  | 22.7 µM
